# Where a name gives a salt, the structure may show the parent alone.
# Tests used:
# [1] = tested on: Scirpus juncoides; test: Table 10 greenhouse trial, treatment at the 1-2 leaf stage: weed control; assay type: in vivo; conditions: 20 days after application
# Experimental: (§1) Seeds or rhizome pieces of mono- and dicotyledonous weed plants are placed into sandy loam soil in plastic pots, covered with soil and grown in a greenhouse under good growth conditions (temperature, atmospheric humidity, water supply). Weeds which are encountered in the cultivation of rice are cultivated in pots in which the water level is up to 2 cm over the soil surface. Three weeks after sowing, the test plants are treated at the three-leaf stage. The active compound combinations according to the invention, formulated as wettable powders or emulsion concentrates, and, in parallel experiments, the correspondingly formulated individual active compounds are sprayed onto the green parts of the plants at different dosages using an amount of water of 300 to 600 l/ha (converted), and, after about 3 to 4 weeks of the test plants in the greenhouse under optimum growth conditions (temperature, atmospheric humidity, water supply), the effect of the preparations is evaluated visually in comparison to untreated controls. In the case of rice or weeds which are encountered in the cultivation of rice, the active compounds are also added directly to the water for irrigation (application analogous to the so-called granules application) or sprayed onto plants and added to the water for irrigation. The experiments were designed with several, up to five, repetitions. The herbicidal compositions according to the invention also have good herbicidal post-emergence activity against a broad spectrum of economically important weed grasses and broad-leaved weeds.
# Greenhouse trial: Treatment at the 1-2 leaf stage, evaluation 20 days after the application.
# [2] = tested on: Cyperus iria; test: Table 24 field trial, treatment by the pre-emergence method: weed control; assay type: in vivo; conditions: 53 days after application
# Text: Field trial: Treatment by the pre-emergence method, evaluation 53 days after the application.
# [3] = tested on: Oryza sativa; test: Table 25 field trial, treatment at the 3 leaf stage: rice damage; assay type: in vivo; conditions: 33 days after application
# Text: (§2) Field trial: Treatment at the 3 leaf stage, evaluation 33 days after the application.
# [4] = tested on: Oryza sativa; test: Table 2a field trial, treatment at the 1-2 leaf stage rice: rice damage; conditions: 28 days after application
# Experimental: (§5) The examples mentioned below were carried out in the greenhouse, and in some instances, in field trials.
# [5] = tested on: Sagittaria pygmaea; test: Table 13 greenhouse trial, treatment at the 5-6 leaf stage: weed control; assay type: in vivo; conditions: 20 days after application
# Experimental: as §1
# (§3) Greenhouse trial: Treatment at the 5-6 leaf stage, evaluation 20 days after the application.
# [6] = tested on: Oryza sativa; test: Table 26 field trial, treatment at the 3 leaf stage: rice damage; assay type: in vivo; conditions: 33 days after application
# Text: as §2
# [7] = tested on: Oryza sativa; test: Table 13 greenhouse trial, treatment at the 5-6 leaf stage: rice damage; assay type: in vivo; conditions: 20 days after application
# Experimental: as §1, §3
# [8] = tested on: ECHCO; test: Table 2 field trial, treatment at the 2-3 leaf stage weed grasses: weed control; assay type: in vivo, Echinochloa colona; conditions: 28 days after application
# Experimental: as §5
# [9] = tested on: Oryza sativa; test: Table 20 field trial, treatment at the 4-6 leaf stage: rice damage; assay type: in vivo; conditions: 2.5 g of ai/ha, 28 days after application
# Text: (§4) Field trial: Treatment at the 4-6 leaf stage, evaluation 28 days after the application.
# [10] = tested on: Ipomoea hederacea; test: Table 20 field trial, treatment at the 4-6 leaf stage: weed control; assay type: in vivo; conditions: 2.5 g of ai/ha, 28 days after application
# Text: as §4
# [11] = tested on: Cyperus serotinus; test: Table 21 field trial, treatment at the 2 leaf stage: weed control; assay type: in vivo; conditions: 2.5 g of ai/ha, 28 days after application
# Text: Field trial: Treatment at the 2 leaf stage, evaluation 28 days after the application.
# [12] = tested on: Cyperus irria; test: Table 3 field trial, treatment at the 2 leaf stage weed grasses: weed control; assay type: in vivo; conditions: 28 days after application
# Experimental: as §5
structure (smiles),measurement,setting,value
"COC(=O)c1ccc(I)cc1S(=O)(=O)NC(=O)Nc1nc(C)nc(OC)n1 [A1*), Sodium salt of methyl 4-iodo-2-[3-(4-methoxy-6-methyl-1,3,5-triazin-2-yl)ureidosulfonyl]benzoate]",SCIJU % control,[1]; 1.5 g of ai/ha,40%
same,SCIJU % control,[1]; 3 g of ai/ha,40%
same,CYPIR % control,[2]; 2.5 g of ai/ha,17%
same,CYPIR % control,[2]; 5 g of ai/ha,27%
same,ORYSW % damage,[3]; 1.25 g of ai/ha,6%
same,ORYSW % damage,[3]; 2.5 g of ai/ha,12%
same,ORYSW % damage,[4]; 1.25 g of ai/ha,10%
same,ORYSW % damage,[4]; 2.5 g of ai/ha,25%
same,ORYSW % damage,[4]; 5 g of ai/ha,25%
same,SAGPY % control,[5]; 1.5 g of ai/ha,30%
same,SAGPY % control,[5]; 3 g of ai/ha,50%
same,ORYSW % damage,[6]; 2.5 g of ai/ha,0%
same,ORYSW % damage,[6]; 5 g of ai/ha,0%
same,ORYSW % damage,[7]; 1.5 g of ai/ha,10%
same,ORYSW % damage,[7]; 3 g of ai/ha,10%
same,ECHCO % control,[8]; 1.25 g of ai/ha,0%
same,ECHCO % control,[8]; 2.5 g of ai/ha,35%
same,ECHCO % control,[8]; 5 g of ai/ha,37%
same,ORYSW % damage,[9],8%
same,IPOHE % control,[10],30%
same,CYPSE % control,[11],25%
same,CYPIR % control,[12]; 0.75 g of ai/ha,40%
same,CYPIR % control,[12]; 1.5 g of ai/ha,67%
same,CYPIR % control,[12]; 2.5 g of ai/ha,87%

# From patent publication US6864217B2, “Herbicidal compositions with substituted phenylsulfonylureas for controlling weeds in rice” (Hoechst Schering AgrEvo GmbH, priority 1998, dated 2005)
